Results from patent publication US20220347171A1, “TREATMENT OF PRURIGO NODULARIS” (TREVI THERAPEUTICS, INC., priority 2016, published 2022).
Counter-ions that a name gives are not always drawn.

System: prurigo nodularis patients
Experiment: Double-blind, placebo-controlled trial in prurigo nodularis patients (Example 2): 7-day average daily Worst Itching Intensity NRS (0-10)
Type: in vivo, human
Procedure: This clinical study was a double-blind, placebo-controlled trial in which prurigo nodularis patients were randomized in a 1:1:1 ratio to nalbuphine ER tablets to a target dose of 90 mg twice daily (BID), nalbuphine HCl ER tablets 180 mg BID, or placebo tablets BID. Use of nonsedating rescue antihistamine medications (non-first generation H1-antihistamines [Simons F E. Advances in H1-antihistamines. N Engl J Med. 2004; 351(21):2203-17.]) were allowed in the study but their use was recorded. Cleansing emollients were allowed for hygiene purposes provided there were no active substances (such as menthol or urea) contained in the lotion. A placebo comparator was chosen because there are no approved treatments for prurigo nodularis in the United States or Europe or an established standard of care that could serve as an active control.
The primary objectives were to evaluate the effects of two doses of nalbuphine HCl ER tablets on the 7-day average daily worst itch (i.e., most severe) intensity using a Worst Itching Intensity Numerical Rating Scale (NRS, 0 [no itching]-10 [worst possible itching]; range, 0-10; anchors at 0 “no itching”; 4-6 “moderate itching”; and 10 “worst possible itching”) (FIG. 1) as well as safety and tolerability. The study was conducted at four North American sites and four European sites. The Sponsor oversaw the conduct of the trial and an independent unblinded Data Safety Monitoring Board reviewed safety data approximately once a month during the conduct of the trial.
The initial primary endpoint was the proportion of patients who achieved at least 30% reduction threshold in 7-day average daily diary-reported worst itch intensity NRS score from baseline to Week 10/last observed post-baseline value (LOV). For the primary endpoint, a responder was a patient who achieved at least 30% reduction threshold in 7-day average daily diary-reported worst itch intensity NRS score from baseline to Week 10/last observed post-baseline value (LOV).
Before study completion and unblinding, however, a more substantial 50% NRS reduction criterion was added as an important definition of response. For this criterion, a responder was a patient who achieved at least 50% reduction threshold in 7-day average daily diary-reported worst itch intensity NRS score from baseline to Week 10/last observed post-baseline value (LOV).
The modified intent-to-treat (MITT) population consisted of all randomly assigned patients who provided a baseline calculated NRS and at least one post-baseline NRS during randomized treatment. Patients were analyzed according to the treatment to which they were randomly assigned.
The primary worst itch NRS endpoint was evaluated by the calculation of proportions, and statistical testing of each nalbuphine dose and placebo was undertaken using a stratified categorical method, the Cochran-Mantel-Haenszel test that took into account site. Specifically, each nalbuphine group was compared to placebo in the form of a stratified (by site) 2×2 table with a P value reported for the nalbuphine HCl ER 180 mg BID versus placebo comparison and a P value separately reported for the nalbuphine HCl ER 90 mg BID versus placebo comparison. The lower nalbuphine dose versus placebo P value was evaluated only if the higher nalbuphine dose versus placebo P value was statistically significant at the 0.05 level. Data from all post-baseline visits were used to fit the model.
In the first 2 weeks of treatment, patients were blindly force-titrated to their assigned target dose, with the patients in the active arms reaching a dose of 90 mg BID (NAL 90) and, for those in the high dose group, to 180 mg BID (NAL 180) in the second week. Study drug was administered in blister cards containing the labeled morning and evening doses for each day of the week. Subsequently, patients continued stable doses of the study drug for an additional 8 weeks and were then washed off study drug and followed for another 2 weeks for itching intensity and safety.

SMILES: Oc1ccc2c3c1OC1[C@@H](O)CC[C@@]4(O)[C@@H](C2)N(CC2CCC2)CC[C@]314 (stereo partly drawn) [Nalbuphine, 17-(cyclobutylmethyl)-4,5α-epoxymorphinian-3, 6α, 14-triol, hydrochloride]
- Responders: at least 30% reduction in 7-day average daily diary-reported worst itch intensity NRS score from baseline (90 mg BID, Week 10 - LOV, MITT N=22, P value 0.779 vs placebo): 6 (27.3) N (%)
- Responders: at least 50% reduction in 7-day average daily diary-reported worst itch intensity NRS score from baseline (90 mg BID, Week 10 - LOV, MITT N=22, p-value 0.981 vs placebo): 3 (13.6%) N (%)
- Responders: at least 30% reduction in 7-day average daily diary-reported worst itch intensity NRS score from baseline (90 mg BID, Week 10 - completer, N=18, P value 0.723 vs placebo): 6 (33.3) N (%)
- Responders: at least 50% reduction in 7-day average daily diary-reported worst itch intensity NRS score from baseline (90 mg BID, Week 10 - completer, N=18, p-value 0.649 vs placebo): 2 (11.1%) N (%)
- Responders: at least 30% reduction in 7-day average daily diary-reported worst itch intensity NRS score from baseline (180 mg BID, Week 10 - LOV, MITT N=18, P value 0.323 vs placebo): 8 (44.4) N (%)
- Responders: at least 50% reduction in 7-day average daily diary-reported worst itch intensity NRS score from baseline (180 mg BID, Week 10 - LOV, MITT N=18, p-value 0.083 vs placebo): 6 (33.3%) N (%)
- Responders: at least 30% reduction in 7-day average daily diary-reported worst itch intensity NRS score from baseline (180 mg BID, Week 10 - completer, N=12, P value 0.026 vs placebo): 9 (75.0) N (%)
- Responders: at least 50% reduction in 7-day average daily diary-reported worst itch intensity NRS score from baseline (180 mg BID, Week 10 - completer, N=12, p-value 0.028 vs placebo): 6 (50%) N (%)
- Mean Change from Baseline to the Last Observation in the Worst Itching NRS versus placebo (180 mg BID, patients who completed the study, P=0.025): statistically significant difference
